According to patent publication US5863716A, “Treatment of plasmodium” (The Leland Stanford Junior University Board of Trustees, priority 1997, dated 1999):

Key:
sphingomyelin synthase = experiment: Inhibition of sphingomyelin biosynthesis in hypotonically lysed infected erythrocytes and fractions; assay type: biochemical, Plasmodium falciparum
Experimental: 1×10^8 infected cells 24 h after invasion were washed serum-free in RPMI 1640 and preincubated for thirty min at 37° C. in 1 ml of RPMI 1640 containing 0-5 μM or 0-500 μM of PPMP. (C6-NBD-ceramide (N-[7-(4-nitrobenzo-2-oxa-1,3-diazide)]-6-aminocaproyl-D-erythro-sphingosine) was added to each sample at a final concentration of 5 μM, the samples further incubated for 30 min at 37° C. and cellular lipids extracted. C6-NBD-sphingomyelin was resolved by TLC and quantitated by fluorescence spectrophotometry as described previously. Bligh, E. G. and Dyer, W. Y. (1959) A rapid method for total lipid extraction and purification., Can. J. Biochem. Physiol. 37: 911-917. Haldar, K., Uyetake, L., Ahori, N., Elmendorf, H. G. and Lu, W-1. (1991) The accumulation and metabolism of a fluorescent ceramide derivative in Plasmodium falciparum--infected erythrocytes., Mo. Biochem. Parasitol. 49: 143-156. Elmendorf, H. G. and Haldar, K. (1994) Plasmodium falciparum exports the Golgi marker sphingomyelin synthase into a tubovesicular network in the cytoplasm of mature erythrocytes., J. Cell Biol. 124: 449-462. Each value obtained represented the mean of triplicate determinations from five experiments. The arrow bars indicate the standard deviations. The results are depicted in FIG. 1.
Cells were washed serum-free in PBS and intact cells were incubated in PBS. Cells were lysed in 10 volumes of hypotonic buffer. Pellets and supernatants were separated by centrifugation at 10^4 ×G for 10 min at 4° C. Inhibition of sphingomyelin biosynthetic activity was carried out as described in Example 1. Glutamate dehydrogenase, a parasite cytosolic activity, was assayed using 10 μM alpha-ketoglutarate and 0.1 μM NADPH for 1 h at 37° C. by measuring the absorption at 340 nm in a spectrophotometer. The following table indicates the results

P. falciparum = experiment: Intraerythrocytic development in long term synchronized culture, parasitemia over consecutive cycles; assay type: cell-based, Plasmodium falciparum
Experimental: Synchronized cultures 12 h after invasion were subjected to different concentrations of PPMP. Parasitemias of drug-treated cultures were determined at various time points during two intraerythrocytic cycles and compared to cells grown in the absence of drug.
The effect of the single lipid analogs to inhibit parasite development in long term culture in consecutive cycles of the parasite growth were investigated. The studies were initiated with synchronized, young rings (0-12h) at 10% parasitemia. In order to ensure healthy growth of the malaria parasite in vitro, the parasitemias of the cultures are not allowed to exceed 10%. Yet under normal conditions a 3-6 fold increase in parasitemias is detected with each round of invasion: thus for each new cycle, the cultures were diluted 4-fold into fresh erythrocytes in the absence or presence of the drug. […] The lowest effective, killing concentration of PDMP over three cycles of growth is 1.0 μM.

[1] = PPMP 0.05 μM, time in drug 0 h, time of cycle 12 h, cycle 1
[2] = PPMP 0.05 μM, time in drug 34 h, time of cycle 46 h, cycle 1, culture fourfold diluted
[3] = PPMP 0.05 μM, time in drug 60 h, time of cycle 12 h, cycle 2
[4] = PPMP 0.05 μM, time in drug 80 h, time of cycle 32 h, cycle 2, culture fourfold diluted
[5] = PPMP 0.05 μM, time in drug 104 h, time of cycle 8 h, cycle 3
[6] = PPMP 0.1 μM, time in drug 0 h, time of cycle 12 h, cycle 1
[7] = PPMP 0.1 μM, time in drug 34 h, time of cycle 46 h, cycle 1, culture fourfold diluted
[8] = PPMP 0.1 μM, time in drug 60 h, time of cycle 12 h, cycle 2
[9] = PPMP 0.1 μM, time in drug 80 h, time of cycle 32 h, cycle 2, culture fourfold diluted
[10] = PPMP 0.1 μM, time in drug 104 h, time of cycle 8 h, cycle 3
[11] = PPMP 0.5 μM, time in drug 0 h, time of cycle 12 h, cycle 1
[12] = PPMP 0.5 μM, time in drug 34 h, time of cycle 46 h, cycle 1, culture fourfold diluted
[13] = PPMP 0.5 μM, time in drug 60 h, time of cycle 12 h, cycle 2
[14] = PPMP 0.5 μM, time in drug 80 h, time of cycle 32 h, cycle 2, culture fourfold diluted
[15] = PPMP 0.5 μM, time in drug 104 h, time of cycle 8 h, cycle 3
[16] = PPMP 1.0 μM, time in drug 0 h, time of cycle 12 h, cycle 1
[17] = PPMP 1.0 μM, time in drug 34 h, time of cycle 46 h, cycle 1, culture fourfold diluted
[18] = PPMP 1.0 μM, time in drug 60 h, time of cycle 12 h, cycle 2
[19] = PPMP 1.0 μM, time in drug 80 h, time of cycle 32 h, cycle 2, culture fourfold diluted
[20] = PPMP 1.0 μM, time in drug 104 h, time of cycle 8 h, cycle 3
[21] = PPMP 5.0 μM, time in drug 0 h, time of cycle 12 h, cycle 1
[22] = PPMP 5.0 μM, time in drug 34 h, time of cycle 46 h, cycle 1, culture fourfold diluted
[23] = PPMP 5.0 μM, time in drug 60 h, time of cycle 12 h, cycle 2
[24] = PPMP 5.0 μM, time in drug 80 h, time of cycle 32 h, cycle 2, culture fourfold diluted
[25] = PPMP 5.0 μM, time in drug 104 h, time of cycle 8 h, cycle 3

CCCCCCCCCCCCCCCC(=O)N[C@H](CN1CCOCC1)[C@H](O)c1ccccc1 (relative stereo) [PPMP, dl-threo-1-phenyl-2-palmitoylamino-3-morpholino-1-propanol]
inhibition of sphingomyelin biosynthesis at 5 μM PPMP [%] (sphingomyelin synthase; hypotonic lysates): 33% | inhibition of sphingomyelin biosynthesis at 5 μM PPMP [%] (sphingomyelin synthase; pellet of lysate (10^4 x G)): 30% | inhibition of sphingomyelin biosynthesis at 5 μM PPMP [%] (sphingomyelin synthase; supernatant of lysate (10^4 x G)): 3% | effect on trophozoite stage parasites (P. falciparum): blocks the development of trophozoite stage parasites | effect on ring development (P. falciparum; 5 μM, first cycle): completely inhibits rings in their first cycle growth | growth inhibition with increasing concentration (P. falciparum; 0.05 to 1.0 μM PPMP): gradual increase in the observed growth inhibition | parasitemia [%], ring (P. falciparum; [1]): 10% | parasitemia [%], schizont (P. falciparum; [1]): 0% | parasitemia [%], trophozoite (P. falciparum; [1]): 0% | parasitemia [%], ring (P. falciparum; [2]): 0% | parasitemia [%], schizont (P. falciparum; [2]): 5% | parasitemia [%], trophozoite (P. falciparum; [2]): 4% | parasitemia [%], ring (P. falciparum; [3]): 5% | parasitemia [%], schizont (P. falciparum; [3]): 1% | parasitemia [%], trophozoite (P. falciparum; [3]): 0% | parasitemia [%], ring (P. falciparum; [4]): 5% | parasitemia [%], schizont (P. falciparum; [4]): 0% | parasitemia [%], trophozoite (P. falciparum; [4]): 0% | parasitemia [%], ring (P. falciparum; [5]): 1% | parasitemia [%], schizont (P. falciparum; [5]): 0% | parasitemia [%], trophozoite (P. falciparum; [5]): 0% | parasitemia [%], ring (P. falciparum; [6]): 10% | parasitemia [%], schizont (P. falciparum; [6]): 0% | parasitemia [%], trophozoite (P. falciparum; [6]): 0% | parasitemia [%], ring (P. falciparum; [7]): 0% | parasitemia [%], schizont (P. falciparum; [7]): 5% | parasitemia [%], trophozoite (P. falciparum; [7]): 4% | parasitemia [%], ring (P. falciparum; [8]): 4% | parasitemia [%], schizont (P. falciparum; [8]): 1% | parasitemia [%], trophozoite (P. falciparum; [8]): 0% | parasitemia [%], ring (P. falciparum; [9]): 4% | parasitemia [%], schizont (P. falciparum; [9]): 0% | parasitemia [%], trophozoite (P. falciparum; [9]): 0% | parasitemia [%], ring (P. falciparum; [10]): 1% | parasitemia [%], schizont (P. falciparum; [10]): 0% | parasitemia [%], trophozoite (P. falciparum; [10]): 0% | parasitemia [%], ring (P. falciparum; [11]): 10% | parasitemia [%], schizont (P. falciparum; [11]): 0% | parasitemia [%], trophozoite (P. falciparum; [11]): 0% | parasitemia [%], ring (P. falciparum; [12]): 0% | parasitemia [%], schizont (P. falciparum; [12]): 4% | parasitemia [%], trophozoite (P. falciparum; [12]): 5% | parasitemia [%], ring (P. falciparum; [13]): 4% | parasitemia [%], schizont (P. falciparum; [13]): 1% | parasitemia [%], trophozoite (P. falciparum; [13]): 0% | parasitemia [%], ring (P. falciparum; [14]): 5% | parasitemia [%], schizont (P. falciparum; [14]): 0% | parasitemia [%], trophozoite (P. falciparum; [14]): 0% | parasitemia [%], ring (P. falciparum; [15]): 1% | parasitemia [%], schizont (P. falciparum; [15]): 0% | parasitemia [%], trophozoite (P. falciparum; [15]): 0% | parasitemia [%], ring (P. falciparum; [16]): 10% | parasitemia [%], schizont (P. falciparum; [16]): 0% | parasitemia [%], trophozoite (P. falciparum; [16]): 0% | parasitemia [%], ring (P. falciparum; [17]): 0% | parasitemia [%], schizont (P. falciparum; [17]): 4% | parasitemia [%], trophozoite (P. falciparum; [17]): 4% | parasitemia [%], ring (P. falciparum; [18]): 3% | parasitemia [%], schizont (P. falciparum; [18]): 2% | parasitemia [%], trophozoite (P. falciparum; [18]): 0% | parasitemia [%], ring (P. falciparum; [19]): 3% | parasitemia [%], schizont (P. falciparum; [19]): 0% | parasitemia [%], trophozoite (P. falciparum; [19]): 0% | parasitemia [%], ring (P. falciparum; [20]): 1% | parasitemia [%], schizont (P. falciparum; [20]): 0% | parasitemia [%], trophozoite (P. falciparum; [20]): 0% | parasitemia [%], ring (P. falciparum; [21]): 10% | parasitemia [%], schizont (P. falciparum; [21]): 0% | parasitemia [%], trophozoite (P. falciparum; [21]): 0% | parasitemia [%], ring (P. falciparum; [22]): 9% | parasitemia [%], schizont (P. falciparum; [22]): 0% | parasitemia [%], trophozoite (P. falciparum; [22]): 0% | parasitemia [%], ring (P. falciparum; [23]): 2% | parasitemia [%], schizont (P. falciparum; [23]): 0% | parasitemia [%], trophozoite (P. falciparum; [23]): 0% | parasitemia [%], ring (P. falciparum; [24]): 0% | parasitemia [%], schizont (P. falciparum; [24]): 0% | parasitemia [%], trophozoite (P. falciparum; [24]): 0% | parasitemia [%], ring (P. falciparum; [25]): 0% | parasitemia [%], schizont (P. falciparum; [25]): 0% | parasitemia [%], trophozoite (P. falciparum; [25]): 0% | effect on development (P. falciparum; concentrations as low as 0.05 μM, first cycle): do not stop development through the first cycle | efficacy compared with PDMP (P. falciparum; long term culture): more effective than PDMP
